According to patent US10987366B2, “Methods and compositions for protection of cells and tissues from computed tomography radiation” (The University of Chicago, priority 2010, dated 2021):

Columns and labels:
[1] = test system: RKO36 cells; assay: GFP direct repeat assay of delayed hyperrecombination (GFP+/- colonies); format: cell-based, human
From the text: Gene conversion can produce a local loss of heterozygosity (LOH) as well as deletions and inversions at linked repeats and translocations (Nickoloff, 2002). The inventor has utilized a green fluorescence protein (GFP)-based assay using human RKO-derived cells to study the role of delayed hyper-recombination in radiation-induced genomic instability (Huang et al., 2004). A GFP direct repeat homologous recombination substrate is incorporated in RKO cells.
Genomic instability can be measured by analysis of delayed hyperrecombination and mutation/deletion at the GFP direct repeat substrate. GFP-RKO cells can be GFP− or GFP+. When these cells are plated, colonies arising from single cells are either homogenously colorless (GFP−) or green (GFP+). […] Mixed colonies arise by delayed hyperrecombination and can easily be scored using the criteria of having at least >4 cells per colony having an altered fluorescent phenotype. The frequency of induced instability can be calculated as the number of GFP+/− colonies per total surviving colonies scored.
Genomic instability was evaluated in RKO36 cells by analysis of delayed hyperrecombination and mutation/deletion at the GFP direct repeat substrate. […] The frequency of induced instability is calculated as the number of GFP+/− colonies per total surviving colonies scored (Huang et al., 2004). […]

[2] = test system: RKO36 cells; assay: Micronuclei formation in irradiated RKO36 cells; format: cell-based, human
Experimental: Under the treatment conditions in which cells were exposed to WR1065 either 30 min before or 3 h following irradiation the protective effect is the result of a direct interaction between the thiol taken up by the cells and the damage induced by radiation. This direct protective effect disappeared when the drug was added 6 h following irradiation. However, when cells were exposed to the thiol 24 h prior to irradiation to allow for the induction of elevated MnSOD enzyme levels, a protective effect was again observed ([…]). In contrast to the data described in FIG. 4A, the protection described in FIG. 4B was mediated not directly by thiol action (Grdina et al., 1995) but as a result of a thiol-induced adaptive response mediated through the activation of NFκB resulting in the elevation of MnSOD activity (Murley et al., 2002; Murley et al., 2004; Murley et al., 2006; Murley et al., 2007; Murley et al., 2008). For comparison, a radiation-induced adaptive response was investigated by first exposing RKO36 cells to 10 cGy and then challenging with a 2 Gy dose 0, 4, 8, 12, 16, 20, and 24 h later (see FIG. 5).

NCCCNCCS [WR1065, 2-[(aminopropyl)amino]ethanethiol]
frequency of GFP+/- colonies ([1]; 4 mM WR1065 for 30 min, no irradiation, P=0.02 vs non-WR1065 irradiated cells (2.7%)): 1.1%
frequency of GFP+/- colonies ([1]; 10 cGy given 24 h following 4 mM WR1065 for 30 min, P=0.05 vs non-WR1065 irradiated cells (2.7%)): 1.6%
micronuclei formation, thiol-induced adaptive response ([2]; 2 Gy challenge 24 h following WR1065 exposure): reduction of micronuclei formation to unirradiated background levels
frequency of micronuclei formation ([2]; 2 Gy, WR1065 30 min following irradiation (FIG. 4B)): significantly reduced
frequency of micronuclei formation ([2]; 2 Gy, WR1065 30 min prior to irradiation (FIG. 4A)): significantly reduced
frequency of micronuclei formation ([2]; 2 Gy, WR1065 1 h following irradiation (FIG. 4B)): significantly reduced
frequency of micronuclei formation ([2]; 2 Gy, WR1065 2 h following irradiation (FIG. 4B)): significantly reduced
frequency of micronuclei formation ([2]; 2 Gy, WR1065 3 h following irradiation (FIG. 4B)): significantly reduced
frequency of micronuclei formation ([2]; 2 Gy, WR1065 24 h prior to irradiation (FIG. 4A)): significantly reduced
direct protective effect against micronuclei formation ([2]; 2 Gy, drug added 6 h following irradiation): disappeared
